Test results as given in patent US8183387B2, “Phenylpyrazole derivatives” (Taisho Pharmaceutical Co., Ltd, priority 2007, dated 2012).

Assays:
[1] = target: T1, human recombinant δ receptor (Homo sapiens, UniProt P41143); assay: [3H]DADLE binding test; conditions: [3H]DADLE 0.5 nM
T1 construct: Cerep, Inc. (contract assay)
Procedure: Affinity for δ receptor was evaluated in a [^3H]DADLE binding test by Cerep, Inc. The δ receptor preparation used was human recombinant δ receptor. The human recombinant δ receptor was incubated with [^3H]DADLE (0.5 nM) at 22° C. for 120 minutes.

[2] = target: T2, σ1 receptor (Homo sapiens, UniProt Q99720); assay: [3H](+)pentazocine binding test; conditions: [3H](+)pentazocine 8 nM, Jurkat cell membrane
T2 construct: host or cells: Jurkat cells (membrane)
T2 sequence (Q99720 whole entry): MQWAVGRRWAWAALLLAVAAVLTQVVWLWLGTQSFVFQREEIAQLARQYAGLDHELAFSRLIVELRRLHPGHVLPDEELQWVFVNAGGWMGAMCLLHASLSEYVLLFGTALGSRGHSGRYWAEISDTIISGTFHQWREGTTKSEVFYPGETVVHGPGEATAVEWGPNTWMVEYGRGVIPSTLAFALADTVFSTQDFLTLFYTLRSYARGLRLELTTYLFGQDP
Procedure: Affinity for σ1 receptor was evaluated in a [^3H](+)pentazocine binding test by Cerep, Inc. The σ1 receptor preparation used was the membrane of Jurkat cells. The Jurkat cell membrane was incubated with [^3H](+)pentazocine (8 nM) at 22° C. for 120 minutes.

[3] = target: T3, rat recombinant κ receptor (Rattus norvegicus, UniProt P34975); assay: [3H]U69593 binding test; conditions: [3H]U69593 1 nM
T3 construct: Cerep, Inc. (contract assay)
T3 sequence (P34975 whole entry): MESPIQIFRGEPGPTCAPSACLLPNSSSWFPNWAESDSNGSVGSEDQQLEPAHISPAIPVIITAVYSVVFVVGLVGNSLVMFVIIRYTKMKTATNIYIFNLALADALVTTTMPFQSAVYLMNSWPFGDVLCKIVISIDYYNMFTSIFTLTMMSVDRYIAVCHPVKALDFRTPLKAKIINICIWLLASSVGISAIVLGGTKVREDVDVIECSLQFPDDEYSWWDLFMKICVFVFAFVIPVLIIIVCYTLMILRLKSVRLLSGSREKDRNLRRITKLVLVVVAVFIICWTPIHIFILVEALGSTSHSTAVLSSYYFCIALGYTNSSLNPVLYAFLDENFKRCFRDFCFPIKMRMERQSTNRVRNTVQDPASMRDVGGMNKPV
Procedure: Affinity for κ receptor was evaluated in a [^3H]U69593 binding test by Cerep, Inc. The κ receptor preparation used was rat recombinant κ receptor. The rat recombinant κ receptor was incubated with [^3H]U69593 (1 nM) at 22° C. for 60 minutes.

[4] = system: Sprague-Dawley rats; assay: Social recognition test; type: in vivo, rat
Procedure: This experiment was performed with Sprague-Dawley rats (male) according to the reported method (Shimazaki et al., European Journal of Pharmacology, 575, 94-97, 2007). Adult rats (9 weeks of age) were placed in a test cage and acclimated for 30 minutes. After 30 minutes, juvenile rats (4 weeks of age) were placed in the same test cage containing the adult rats, and allowed to stand for 5 minutes. During this 5 minutes, the time taken for the adult rats to show social behavior (sniffing, grooming, following) to the juvenile rats was measured (first exploratory time). Then, the rats were removed from the test cage and returned to their respective home cages. After 85 minutes, the adult rats were placed again in the test cage and acclimated for 30 minutes. The same juvenile rats as used in the first exploratory were placed in the test cage, followed by measuring the time taken for the adult rats to show social behavior (sniffing, grooming, following) to the juvenile rats during 5 minutes (second exploratory time). The social recognition was expressed as the ratio of second exploratory time/first exploratory time. A test substance (the compound of Example 70) was orally administered to the adult rats immediately after their first social behavior.

[5] = Distribution test in rats; type: in vivo, rat; conditions: SD rats, single oral dose 3 mg/kg (2.75 mg/kg as a free form); plasma and organs at 1, 2, 4, 8 and 24 hours
Procedure: SD rats were used and orally administered once with the compound of Example 70 at a dose of 3 mg/kg (2.75 mg/kg as a free form) to confirm the tissue distribution of the compound in plasma, brain, liver, kidney, spleen, lung, heart, muscle, fat, testis, bone marrow and adrenal gland at 1, 2, 4, 8 and 24 hours after administration. For quantification, high performance liquid chromatography/tandem mass spectrometry (LC-MS/MS) was used.

[6] = system: CHL/IU cells; assay: Cytotoxicity test; type: cell-based, Chinese hamster; conditions: 48 hours culture, Cell counting kit-8
Procedure: Chinese hamster lung fibroblast-derived CHL/IU cells (DS Pharma Biomedical Co., Ltd., Japan) were seeded, and the medium was replaced on the following day by another medium (MEM+2 mM L-Glutamine+10% CS (all purchased from Invitrogen)) containing a test compound at various concentrations, followed by culture for an additional 48 hours. Using a Cell counting kit-8 (Dojindo Laboratories, Japan), the survival rate of the cells was determined to obtain a curve whose horizontal axis represents the test compound concentration and whose vertical axis represents the survival rate. The curve thus obtained was used to determine the concentration of the test compound at which the survival rate was 50%. As a result, this concentration was 275, 441 and >640 mmol/L for the compounds of Examples 56, 62 and 70, respectively.

[7] = target: human recombinant μ receptor (Homo sapiens, UniProt P35372); assay: [3H]diprenorphine binding test; conditions: read-out: % Inhibition (10 μM), μ receptor
Chain of human recombinant μ receptor (P35372 whole entry): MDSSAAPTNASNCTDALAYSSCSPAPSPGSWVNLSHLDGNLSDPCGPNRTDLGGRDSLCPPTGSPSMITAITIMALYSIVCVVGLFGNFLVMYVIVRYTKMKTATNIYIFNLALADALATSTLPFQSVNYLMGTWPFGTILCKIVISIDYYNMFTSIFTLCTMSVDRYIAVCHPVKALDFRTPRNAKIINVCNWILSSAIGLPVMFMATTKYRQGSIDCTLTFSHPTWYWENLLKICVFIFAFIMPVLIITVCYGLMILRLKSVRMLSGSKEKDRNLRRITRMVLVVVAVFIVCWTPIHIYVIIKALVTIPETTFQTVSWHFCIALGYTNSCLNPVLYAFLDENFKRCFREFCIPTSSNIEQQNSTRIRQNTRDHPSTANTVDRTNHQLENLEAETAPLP
Procedure: Affinity for μ receptor was evaluated in a [^3H]diprenorphine binding test by Cerep, Inc. The μ receptor preparation used was human recombinant μ receptor. […] Binding of [^3H]diprenorphine in the presence of 1 μM naltrexone was defined as non-specific binding, and the difference between total binding and non-specific binding of [^3H]diprenorphine was defined as specific binding of [^3H]diprenorphine.

T1 sequence (P41143 whole entry): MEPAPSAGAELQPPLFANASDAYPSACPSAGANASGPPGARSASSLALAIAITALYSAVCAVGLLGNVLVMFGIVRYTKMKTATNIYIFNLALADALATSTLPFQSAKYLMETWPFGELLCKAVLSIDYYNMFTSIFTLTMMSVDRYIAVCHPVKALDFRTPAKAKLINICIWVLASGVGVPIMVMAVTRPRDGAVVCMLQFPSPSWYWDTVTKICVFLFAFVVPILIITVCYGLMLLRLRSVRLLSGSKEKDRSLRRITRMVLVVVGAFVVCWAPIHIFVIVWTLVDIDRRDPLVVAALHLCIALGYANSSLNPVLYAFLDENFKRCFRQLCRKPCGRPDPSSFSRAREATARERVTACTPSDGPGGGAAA

C[C@@H]1CCCN1CCCOc1ccc(-n2cc(C(=O)N3CCOCC3)cn2)cc1.Cl [Example 70, 4-{[1-(4-{3-[(2R)-2-methylpyrrolidin-1-yl]propoxy}phenyl)-1H-pyrazol-4-yl]carbonyl}morpholine monohydrochloride]
inhibition at 10 µM [1]: -1% | inhibition at 10 µM [2]: 28% | inhibition at 10 µM [3]: 17% | effect on cognitive functions ([4]; 10 mg/kg oral, rats, compared to vehicle group): had an enhancing effect on cognitive functions | Ratio (second exploratory time/first exploratory time) ([4]; 10 mg/kg orally to adult rats immediately after first social behavior, n = 18, p<0.01 vs vehicle): 0.66 ± 0.06^p<0.01 | tissue distribution of unchanged form and major metabolites [5]: rapidly disappear from each organ | concentration of the test compound at which the survival rate was 50% [6]: > 640000 µM | inhibition at 10 µM [7]: 3%
